Test results: ChEMBL document CHEMBL1157399, “Antioxidant 2-phenylbenzofurans and a coumestan from Lespedeza virgata” (J Nat Prod, 2008)
pIC50: −log10 of the molar value.

Key:
[1] = Antioxidant activity assessed as oxygen radical scavenging activity by ORAC-fluorescence assay; assay type: functional
[2] = Antioxidant activity against 2,2'-azobis (2-amidinopropane) dihydrochloride-induced fluorescence decay at 1.5 uM assessed as trolox equivalents by ORAC-fluorescence assay; assay type: functional
Plasma = experiment: Inhibition of lipid peroxidation in renal failured rat plasma assessed as inhibition of malondialdehyde level by TBARS assay; assay type: functional, cell-free
Kidney = experiment: Inhibition of lipid peroxidation in renal failured rat kidney homogenate assessed as inhibition of malondialdehyde level by TBARS assay; assay type: functional, tissue-based

pIC50 (Plasma)	pIC50 (Kidney)	Compound	Activity [1]	Activity [2]
2.26	2.52	O=C1O[C@H]([C@@H](O)CO)C(O)=C1O [ASCORBIC ACID]	Dose-dependent effect	165
3.72	3.35	COc1c(CCC(C)(C)O)c(O)cc2oc(=O)c3c4cc(O)c(O)cc4oc3c12 [LESPEDEZACOUMESTAN]	Dose-dependent effect	450
3.12	3.19	COc1cc(OC)c(-c2oc3cc(O)c(O)cc3c2C=O)c(OC)c1 [LESPEDEZAVIRGATAL]	Dose-dependent effect	189
3.74	3.80	COc1ccc(O)c(-c2cc3ccc(O)c(OC)c3o2)c1OC [LESPEDEZAVIRGATOL]	Dose-dependent effect	763
